Measured values reported in patent US9274101B2 (BIOLOG, Inc., priority 2001, dated 2016).

Experiments:
Format in all cases: cell-based, human
[1] = test system: Undifferentiated HL-60 cells; assay: Energy use by undifferentiated HL-60 cells
HepG2 cells = HepG2 cells on flat bottom plastic wells, energy sources at a range of concentrations
Method: In this Example, methods for testing adherent cells for their ability to use multiple carbon sources are described. The human hepatocellular carcinoma cell line known as HepG2 (Knowles et al., Science, 209:497-499 [1980]) was chosen for this experiment. However, this application is not intended to be limited to the use of HepG2 cells, hepatocytes, carcinoma cells or even human cells.
HepG2 cells were grown in Falcon tissue culture flasks with vented tops. The culture medium used was Minimal Essential medium (MEM, Invitrogen 11095) with 1 g/L glucose, 2 mM L-glutamine, 2.2 g/L sodium bicarbonate, 10 mg/L phenol red, and supplemented with 0.1 mM Nonessential Amino Acids, 1 mM sodium pyruvate, 50 U/mL penicillin, 50 μg/mL streptomycin, and 10% (v/v) heat inactivated fetal bovine serum (HI FBS, Invitrogen 16140). The cells were seeded at 2×10^4/cm^2 and used 3 days after initiation of culture. During all incubations, the cells were kept in an atmosphere of 5% CO2, 90-100% humidity, and 37° C. Cells were harvested by trypsinization for 3 minutes in 0.25% trypsin-1 mM EDTA and resuspended in an equal volume of culture medium. A viable cell count was obtained by trypan blue exclusion and an appropriate volume of the cell suspension (to have 33% more viable cells than was sufficient for the experiment) was placed in a polypropylene centrifuge tube. Cells were pelleted by centrifugation at 350×g for 10 minutes at room temperature, resuspended in Dulbecco's Phosphate Buffered Saline (D-PBS, Invitrogen 14040) and centrifuged a second time. Cells were then resuspended to two-thirds the final volume needed in Dulbecco' ? s Modified Eagle's Medium (DME, Sigma D5030) containing 10% HI FBS and penicillin-streptomycin but without glucose, L-glutamine, sodium pyruvate, and phenol red. An aliquot was counted by trypan blue exclusion and the cell density was adjusted to 1.28×10^5/mL. Cells were plated in 100 μL/well in wells of standard, 96-well plates (4×10^4 cells/cm^2) and allowed to adhere overnight prior to addition of test chemicals.
For assay, the culture medium was aspirated, the wells were washed once with D-PBS and 170 μL of DME were added to each well, followed by 30 μL of the appropriate dilution of each test energy source. Stocks of 133 mM of each test chemical were prepared in tissue culture grade water, sterile filtered, and dilutions were prepared in a master plate so that, upon dilution into a regular 96-well MICROPLATE a total well volume of 200 μL, the final concentrations would be 0.033 to 20 mM. Negative control wells received 30 μL of tissue culture grade water. For each plate containing energy sources and cells, a second, control plate containing only energy sources was prepared. Plates were incubated at 5% CO2, 90-100% humidity, and 37° C. for 48 to 72 hours prior to addition of the MTS/PMS colorometric reagent (10 μL/well). The color formed in each well 4-24 hours after addition of the calorimetric reagent, was measured with a plate reader at 490 nm with a reference wavelength of 650 nm. OD values from the control plate were subtracted from the OD values obtained with cells prior to normalizing the data to % negative control (cells without added energy source).

HL-60 cells = assay: Effect of 10 mM citric acid on HL-60 energy utilization; settings: negative control without energy sources and without citric acid

Structure (SMILES): O=C1O[C@@H]([C@H](O)CO)[C@H](O)[C@H]1O [D-gal acid g-lactone]
- Energy Use by Undifferentiated HL-60 Cells ([1]; Conc. 0.03 mM): 122.7 % of negative control
- Energy Use by Undifferentiated HL-60 Cells ([1]; Conc. 0.10 mM): 127.4 % of negative control
- Energy Use by Undifferentiated HL-60 Cells ([1]; Conc. 0.33 mM): 125.3 % of negative control
- Energy Use by Undifferentiated HL-60 Cells ([1]; Conc. 1.00 mM): 133.2 % of negative control
- Energy Use by Undifferentiated HL-60 Cells ([1]; Conc. 3.3 mM): 152.6 % of negative control
- Energy Use by Undifferentiated HL-60 Cells ([1]; Conc. 10 mM): 136.7 % of negative control
- Energy Use by Undifferentiated HL-60 Cells ([1]; Conc. 15 mM): 147.5 % of negative control
- Energy Use by Undifferentiated HL-60 Cells ([1]; Conc. 20 mM): 125.0 % of negative control
- HepG2 Cells Responses After 72 hours in Culture and a 4 hour Color Development Period (HepG2 cells; Conc. 0.03 mM): 111.3 % of negative control
- HepG2 Cells Responses After 72 hours in Culture and a 4 hour Color Development Period (HepG2 cells; Conc. 0.10 mM): 142.3 % of negative control
- HepG2 Cells Responses After 72 hours in Culture and a 4 hour Color Development Period (HepG2 cells; Conc. 0.33 mM): 164.7 % of negative control
- HepG2 Cells Responses After 72 hours in Culture and a 4 hour Color Development Period (HepG2 cells; Conc. 1.00 mM): 162.9 % of negative control
- HepG2 Cells Responses After 72 hours in Culture and a 4 hour Color Development Period (HepG2 cells; Conc. 3.3 mM): 157.3 % of negative control
- HepG2 Cells Responses After 72 hours in Culture and a 4 hour Color Development Period (HepG2 cells; Conc. 10 mM): 178.4 % of negative control
- HepG2 Cells Responses After 72 hours in Culture and a 4 hour Color Development Period (HepG2 cells; Conc. 15 mM): 239.3 % of negative control
- HepG2 Cells Responses After 72 hours in Culture and a 4 hour Color Development Period (HepG2 cells; Conc. 20 mM): 207.6 % of negative control
- Effect of 10 mM Citric Acid on HL-60 Energy Utilization (HL-60 cells; energy source 0.03 mM with 10 mM citric acid): 9.5 % of negative control
- Effect of 10 mM Citric Acid on HL-60 Energy Utilization (HL-60 cells; energy source 0.10 mM with 10 mM citric acid): 20.9 % of negative control
- Effect of 10 mM Citric Acid on HL-60 Energy Utilization (HL-60 cells; energy source 0.33 mM with 10 mM citric acid): 35.7 % of negative control
- Effect of 10 mM Citric Acid on HL-60 Energy Utilization (HL-60 cells; energy source 1.00 mM with 10 mM citric acid): 63.3 % of negative control
- Effect of 10 mM Citric Acid on HL-60 Energy Utilization (HL-60 cells; energy source 3.3 mM with 10 mM citric acid): 162.8 % of negative control
- Effect of 10 mM Citric Acid on HL-60 Energy Utilization (HL-60 cells; energy source 10 mM with 10 mM citric acid): 151.5 % of negative control
- Effect of 10 mM Citric Acid on HL-60 Energy Utilization (HL-60 cells; energy source 15 mM with 10 mM citric acid): 126.5 % of negative control
- Effect of 10 mM Citric Acid on HL-60 Energy Utilization (HL-60 cells; energy source 20 mM with 10 mM citric acid): 115.7 % of negative control
